Results on one molecule are retold here after patent US20130331764A9, “ANTICANCER AGENT DELIVERY SYSTEM USING pH-SENSITIVE METAL NANOPARTICLES” (priority 2010, published 2013).

The test system of the assay is Breast cancer cells. The assay is described as follows: Drug test: intranuclear delivery of doxorubicin by nuclear yellow-reddish fluorescence (fluorescence microscopy). Type of assay: cell-based. How it is done:
In this Example, the anticancer drug doxorubicin was employed. Doxorubicin works to induce cell death by intercalating DNA. It emits yellow-reddish fluorescence at near 600 nm. When the conjugates penetrate into cancer cells, doxorubicin is dissociated from the gold nanoparticles by hydrolysis under an acidic condition and translocates into the nucleus which thus emits yellow-reddish fluorescence.
Breast cancer cells in test groups were incubated with the pH-sensitive gold nanoparticle-doxorubicin conjugates to induce the internalization of the conjugate (middle panel, FIG. 6).
For comparison, cells were incubated with doxorubicin-free pH-sensitive gold nanoparticles (left panel, FIG. 6) and with doxorubicin alone (right panel, FIG. 6) under the same condition.
The intranuclear delivery of doxorubicin can be qualitatively analyzed in terms of nuclear yellow-reddish fluorescence as measured by fluorescence microscopy.

Turning to `COc1cccc2c1C(=O)c1c(O)c3c(c(O)c1C2=O)C[C@@](O)(C(=O)CO)C[C@@H]3O[C@H]1C[C@H](N)[C@H](O)[C@H](C)O1` [doxorubicin], the “nuclear fluorescence of doxorubicin” value runs as follows: (3 hours of incubation) “the fluorescence was intensified”; (one hour of incubation) “started to exhibit fluorescence”.
